Reference: ChEMBL document CHEMBL4819062, “Novel iodinated quinazolinones bearing sulfonamide as new scaffold targeting radiation induced oxidative stress” (Bioorg Med Chem Lett, 2021)

What was measured:
[1] = biological target: T1, Nuclear factor erythroid 2-related factor 2 (Mus musculus) (UniProt Q60795); assay: Activation of Nrf2 in mouse Hepa1c1c7 cells assessed as increase in NQO1 activity at 0.5 uM; assay type: cell-based; conditions: filed as activator
T1 sequence (whole entry): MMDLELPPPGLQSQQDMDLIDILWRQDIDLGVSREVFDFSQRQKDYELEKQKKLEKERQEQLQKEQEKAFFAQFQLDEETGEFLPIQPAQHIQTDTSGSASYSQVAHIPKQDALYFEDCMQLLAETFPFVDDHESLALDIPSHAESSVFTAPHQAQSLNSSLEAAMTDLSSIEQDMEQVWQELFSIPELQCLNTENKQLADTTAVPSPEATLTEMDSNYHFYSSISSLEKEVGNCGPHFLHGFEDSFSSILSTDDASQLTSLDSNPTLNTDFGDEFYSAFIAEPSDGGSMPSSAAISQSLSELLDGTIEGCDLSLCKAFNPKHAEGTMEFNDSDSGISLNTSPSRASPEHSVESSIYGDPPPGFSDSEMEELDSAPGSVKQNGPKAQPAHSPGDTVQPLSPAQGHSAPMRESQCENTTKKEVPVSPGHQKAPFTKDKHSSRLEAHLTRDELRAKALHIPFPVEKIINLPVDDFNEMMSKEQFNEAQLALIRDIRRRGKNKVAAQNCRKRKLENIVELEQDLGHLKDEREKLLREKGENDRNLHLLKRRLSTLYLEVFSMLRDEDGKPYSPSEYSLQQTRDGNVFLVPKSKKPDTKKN

[2] = biological target: T1, Nuclear factor erythroid 2-related factor 2 (Mus musculus); assay: Activation of Nrf2 in mouse Hepa1c1c7 cells assessed as increase in NQO1 activity at 15 uM; assay type: cell-based; conditions: filed as activator
[3] = biological target: T1, Nuclear factor erythroid 2-related factor 2 (Mus musculus); assay: Activation of Nrf2 in mouse Hepa1c1c7 cells assessed as increase in NQO1 activity at 7.5 uM; assay type: cell-based; conditions: filed as activator
[4] = biological target: T1, Nuclear factor erythroid 2-related factor 2 (Mus musculus); assay: Activation of Nrf2 in mouse Hepa1c1c7 cells assessed as increase in NQO1 activity at 0.2 uM; assay type: cell-based; conditions: filed as activator
[5] = biological target: T1, Nuclear factor erythroid 2-related factor 2 (Mus musculus); assay: Activation of Nrf2 in mouse Hepa1c1c7 cells assessed as increase in NQO1 activity at 0.9 uM; assay type: cell-based; conditions: filed as activator
[6] = Antioxidant activity assessed as DPPH radical scavenging activity; assay type: functional
[7] = biological target: T1, Nuclear factor erythroid 2-related factor 2 (Mus musculus); assay: Activation of Nrf2 in mouse Hepa1c1c7 cells assessed as increase in NQO1 activity at 30 uM; assay type: cell-based; conditions: filed as activator
[8] = biological target: T1, Nuclear factor erythroid 2-related factor 2 (Mus musculus); assay: Activation of Nrf2 in mouse Hepa1c1c7 cells assessed as increase in NQO1 activity at 1.9 uM; assay type: cell-based; conditions: filed as activator
[9] = biological target: T1, Nuclear factor erythroid 2-related factor 2 (Mus musculus); assay: Activation of Nrf2 in mouse Hepa1c1c7 cells assessed as increase in NQO1 activity at 3.75 uM; assay type: cell-based; conditions: filed as activator
[10] = biological target: T1, Nuclear factor erythroid 2-related factor 2 (Mus musculus); assay: Activation of Nrf2 in mouse Hepa1c1c7 cells assessed as increase in NQO1 activity at 3.125 uM; assay type: cell-based; conditions: filed as activator
[11] = biological target: T1, Nuclear factor erythroid 2-related factor 2 (Mus musculus); assay: Activation of Nrf2 in mouse Hepa1c1c7 cells assessed as increase in NQO1 activity at 12.5 uM; assay type: cell-based; conditions: filed as activator
[12] = biological target: T1, Nuclear factor erythroid 2-related factor 2 (Mus musculus); assay: Activation of Nrf2 in mouse Hepa1c1c7 cells assessed as increase in NQO1 activity at 25 uM; assay type: cell-based; conditions: filed as activator
[13] = biological target: T1, Nuclear factor erythroid 2-related factor 2 (Mus musculus); assay: Activation of Nrf2 in mouse Hepa1c1c7 cells assessed as increase in NQO1 activity at 0.8 uM; assay type: cell-based; conditions: filed as activator
[14] = biological target: T1, Nuclear factor erythroid 2-related factor 2 (Mus musculus); assay: Activation of Nrf2 in mouse Hepa1c1c7 cells assessed as increase in NQO1 activity at 0.4 uM; assay type: cell-based; conditions: filed as activator
[15] = biological target: T1, Nuclear factor erythroid 2-related factor 2 (Mus musculus); assay: Activation of Nrf2 in mouse Hepa1c1c7 cells assessed as increase in NQO1 activity at 6.25 uM; assay type: cell-based; conditions: filed as activator
[16] = biological target: T1, Nuclear factor erythroid 2-related factor 2 (Mus musculus); assay: Activation of Nrf2 in mouse Hepa1c1c7 cells assessed as increase in NQO1 activity at 50 uM; assay type: cell-based; conditions: filed as activator
[17] = biological target: T1, Nuclear factor erythroid 2-related factor 2 (Mus musculus); assay: Activation of Nrf2 in mouse Hepa1c1c7 cells assessed as increase in NQO1 activity at 1.6 uM; assay type: cell-based; conditions: filed as activator
[18] = biological target: T1, Nuclear factor erythroid 2-related factor 2 (Mus musculus); assay: Activation of Nrf2 in mouse Hepa1c1c7 cells assessed as increase in NQO1 activity at 0.625 uM; assay type: cell-based; conditions: filed as activator
[19] = biological target: T1, Nuclear factor erythroid 2-related factor 2 (Mus musculus); assay: Activation of Nrf2 in mouse Hepa1c1c7 cells assessed as increase in NQO1 activity at 5 uM; assay type: cell-based; conditions: filed as activator
[20] = biological target: T1, Nuclear factor erythroid 2-related factor 2 (Mus musculus); assay: Activation of Nrf2 in mouse Hepa1c1c7 cells assessed as increase in NQO1 activity at 2.5 uM; assay type: cell-based; conditions: filed as activator
[21] = biological target: T1, Nuclear factor erythroid 2-related factor 2 (Mus musculus); assay: Activation of Nrf2 in mouse Hepa1c1c7 cells assessed as increase in NQO1 activity at 1.25 uM; assay type: cell-based; conditions: filed as activator
[22] = biological target: T1, Nuclear factor erythroid 2-related factor 2 (Mus musculus); assay: Activation of Nrf2 in mouse Hepa1c1c7 cells assessed as increase in NQO1 activity at 40 uM; assay type: cell-based; conditions: filed as activator
[23] = biological target: T1, Nuclear factor erythroid 2-related factor 2 (Mus musculus); assay: Activation of Nrf2 in mouse Hepa1c1c7 cells assessed as increase in NQO1 activity at 20 uM; assay type: cell-based; conditions: filed as activator
[24] = biological target: T1, Nuclear factor erythroid 2-related factor 2 (Mus musculus); assay: Activation of Nrf2 in mouse Hepa1c1c7 cells assessed as increase in NQO1 activity at 10 uM; assay type: cell-based; conditions: filed as activator
[25] = biological target: T1, Nuclear factor erythroid 2-related factor 2 (Mus musculus); assay: Activation of Nrf2 in mouse Hepa1c1c7 cells assessed as concentration required to double induction to increase in NQO1 activity; assay type: cell-based; conditions: filed as activator
[26] = biological target: T1, Nuclear factor erythroid 2-related factor 2 (Mus musculus); assay: Activation of Nrf2 in mouse Hepa1c1c7 cells assessed as increase in NQO1 activity at 0.313 uM; assay type: cell-based; conditions: filed as activator

Work on `NS(=O)(=O)c1ccc(-n2c(SCC(=O)Nc3cccc(F)c3)nc3c(I)cc(I)cc3c2=O)cc1` yielded an Activity [1] of 1.04, an Activity [2] of 1.31 and an Activity [3] of 1.21. The Activity [4] was 1.01, the Activity [5] was 1.07 and the IC50 [6] was 59.4 µM. It also gave an Activity [7] of 1.47, an Activity [8] of 1.06 and an Activity [9] of 1.1.

Compound `NS(=O)(=O)c1ccc(-n2c(SCC(=O)Nc3ccc(F)cc3)nc3c(I)cc(I)cc3c2=O)cc1` has an Activity [10] of 0.99, an Activity [11] of 1.06 and an Activity [12] of 1.13. For the same compound, the Activity [13] was 1, the Activity [14] was 0.98 and the Activity [15] was 1. It also gave an IC50 [6] of 158 µM, an Activity [16] of 1.19 and an Activity [17] of 0.99.

For `NS(=O)(=O)c1ccc(-n2c(SCC(=O)Nc3ccc(Br)cc3)nc3c(I)cc(I)cc3c2=O)cc1`, the Activity [18] was 1.01, the Activity [19] was 1.02 and the Activity [20] was 0.94. The Activity [21] was 0.99, the Activity [22] was 1.93 and the IC50 [6] was 49.3 µM. For the same compound, the Activity [23] was 1.42, the Activity [24] was 1.15 and the Activity [25] was “Dose-Dependent Effect”. The CD [25] was 40 µM and the Activity [26] was 1.02.

Work on `NS(=O)(=O)c1ccc(-n2c(SCC(=O)Nc3cccnc3)nc3c(I)cc(I)cc3c2=O)cc1` yielded an Activity [1] of 0.99, an Activity [2] of 1.19 and an Activity [3] of 1.07. The Activity [4] was 1, the Activity [5] was 1 and the IC50 [6] was 165 µM. It also gave an Activity [7] of 1.35, an Activity [8] of 0.99 and an Activity [9] of 1.03.

`NS(=O)(=O)c1ccc(-n2c(SCC(=O)Nc3c(Cl)cc(Cl)cc3Cl)nc3c(I)cc(I)cc3c2=O)cc1` gave an Activity [1] of 1.02, an Activity [2] of 1 and an Activity [3] of 1. The Activity [4] was 1, the Activity [5] was 1.06 and the IC50 [6] was 161 µM. The Activity [7] was 1.02, the Activity [8] was 1.04 and the Activity [9] was 1.02.

`NS(=O)(=O)c1ccc(-n2c(SCC(=O)Nc3ccc(Cl)cn3)nc3c(I)cc(I)cc3c2=O)cc1` gave an Activity [10] of 1.09, an Activity [11] of 1.7 and an Activity [13] of 0.99. It also gave an Activity [14] of 0.94, an Activity [15] of 1.5 and an IC50 [6] of 30.5 µM. For the same compound, the Activity [17] was 0.98.

`NS(=O)(=O)c1ccc(-n2c(SCC(=O)Nc3ccccc3F)nc3c(I)cc(I)cc3c2=O)cc1` gave an Activity [1] of 1.06, an Activity [2] of 1.8 and an Activity [3] of 1.23. The Activity [4] was 1.05, the Activity [5] was 1.11 and the IC50 [6] was 98.9 µM. It also gave an Activity [8] of 1.12 and an Activity [9] of 1.13.

For `NS(=O)(=O)c1ccc(-n2c(SCC(=O)Nc3ccccn3)nc3c(I)cc(I)cc3c2=O)cc1`, the Activity [18] was 0.94, the Activity [19] was 0.51 and the Activity [20] was 0.76. It also gave an Activity [21] of 0.83, an IC50 [6] of 85 µM and an Activity [26] of 0.96.
